In the METLIN SMRT retention time set (Domingo-Almenara et al. 2019):

Assay: gradient 5% acetonitrile 3 min, to 50% in 2 min, to 85% in 15 min, held 3 min, 100 µL/min
Conditions: column: Zorbax Extend-C18 2.1 x 50 mm; eluents: water / acetonitrile, 0.1% formic acid
Summary of the method: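 Mixtures of ~100 pure standards were chromatographed on a Zorbax Extend-C18 column (2.1 × 50 mm, 1.8 μm) at 100 μL/min using water and acetonitrile, each with 0.1% formic acid. Detection used a quadrupole time-of-flight mass spectrometer in positive and negative ionization mode, and data collection spanned 3 months. Retention time was obtained from adduct peaks picked computationally and each checked manually.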

| Structure (SMILES) | RP-LC retention time [s] |
| --- | --- |
| CC(C)CN1CCN(C(=O)c2cn(-c3ccc(-c4nc(C(C)(C)C)no4)cn3)cn2)CC1 | 699 |
| Cc1ccc2nc(-c3cccc(Cl)c3)c(Nc3ccc4c(c3)OCCO4)n2c1 | 724 |
| Cc1cc(C(=O)N2CCCCCC2c2nnc(C)o2)on1 (stereo not given) | 669 |
| Cc1ccc(-c2nc3cnc(Br)cn3c2Nc2ccc3c(c2)OCCO3)cc1 | 956 |
| O=C(CN1C(=O)CCCc2ccccc21)N1CCN(C(=O)c2ccco2)CC1 | 678 |
| Cc1ccc(C)c(N2CCN(S(=O)(=O)c3cc(-c4cnn5c(C)cc(C)nc45)ccc3C)CC2)c1 | 1270 |
| COc1ccc(S(=O)(=O)N2CC3CN(C(=O)Cc4cccc(F)c4)CC(C2)O3)cc1 | 825 |
| Cc1ccc(-c2nc3cnccn3c2Nc2ccccc2C)cc1 | 969 |
| Cc1nc2cc(N3CC(C(=O)Nc4ccc(F)c(C)c4)CC3=O)ccc2o1 (stereo not given) | 753 |
| CCn1cc(CC(=O)NCCC(C)C)c2cccnc21 | 706 |
| CC(C)(C)NC(=O)c1cc2c(s1)N(CC1CC1)CCCC2 | 1200 |
| CNC(=O)C1CN(S(=O)(=O)c2ccc(C)cc2)CC12CCCC2 (stereo not given) | 596 |
| COCc1cc(=O)n(CC(=O)Nc2ccccc2C)c(N)n1 | 603 |
| Cc1ccc(-c2noc3ncnc(N4CCN(c5ccccn5)CC4)c23)cc1 | 690 |
| c1ccc2c(c1)nnn1c3cnccc3nc21 | 606 |
| CC1CCCCN1CCNC(=O)Cn1c2ccccc2c2cnn(C)c(=O)c21 (stereo not given) | 620 |
| O=C(Cn1nc(N2CCOCC2)c2ccccc2c1=O)Nc1ccc2c(c1)OCO2 | 733 |
| Cn1nccc1-c1cccc(-c2noc(-c3ccc(F)cc3)n2)c1 | 915 |
| Cc1nnc(CNC(=O)Cc2csc(Nc3ncccn3)n2)o1 | 560 |
| Cc1ccc(C(C)NC(=O)C2CCN(c3cnc4nccnc4c3)CC2)c(C)c1 (stereo not given) | 741 |
| CCc1cccc(C)c1NC(=O)Cn1c(=O)n(-c2cccc(C)c2)c(=O)c2c1cc(C)n2C | 881 |
| CC(C)(CO)NCc1ccc(-c2ccc(Cl)cc2Cl)o1 | 685 |
| C=CCN(CC=C)C(=O)Nc1cc(OC)ccc1OC | 962 |

| Structure (SMILES) | RP-LC retention time [s] |
| --- | --- |
| Cc1ccc(CNC(=O)N2CCN(C(=O)N3C[C@H]4C[C@@H](C3)[C@H]3CCCC(=O)N3C4)CC2)cc1 | 677 |
| CCn1ccc2cc(S(=O)(=O)N3CCCC(C(=O)NCCCOC)C3)ccc21 (stereo not given) | 804 |
| O=C(CN1CCN(Cc2ccc(F)cc2)C1=O)NCc1ccc(N2CCOCC2)cc1 | 712 |
| CCN(CC)CCNC(=O)C1CCN(c2nnc3ccc(Cl)cn23)CC1 | 565 |
| COC(=O)C1=CN(c2cc(OC)cc(OC)c2)c2cc(F)ccc2S1(=O)=O | 904 |
| CCN1C(=O)c2cc(S(=O)(=O)Nc3cc(F)ccc3C)ccc2Oc2cccnc21 | 1030 |
| Cc1ccc(-c2csc(NC(=O)COc3cc(C)ccc3C(C)C)n2)cc1 | 992 |
| O=C([C@@H]1C[C@H](F)CN1C(=O)c1ccc(F)cc1)N1CCOCC1 | 608 |
| COC(=O)C1=CN(c2cccc(Cl)c2)c2cc(F)ccc2S1(=O)=O | 897 |
| CCCNC(=O)CCNc1c(-c2cccc(F)c2)nc2cnccn12 | 650 |
| CCn1nc(C)c(CCN(C)C(=O)Nc2ccccc2C(=O)OC)c1C | 744 |
| COC(=O)C1=C(N)C(=O)N(CCc2ccc(OC)c(OC)c2)C1 | 648 |
| CN(C)S(=O)(=O)c1ccc2c(c1)N(CC(=O)NCc1ccc(F)cc1)C(=O)C1CCCCN21 (stereo not given) | 896 |
| COc1cccc(-n2c(=O)c(C(=O)Nc3ccc(F)cc3)c(O)c3cccnc32)c1 | 1210 |
| O=C1COc2ccc(S(=O)(=O)N3CCC(C(=O)Nc4ccc(OC(F)(F)F)cc4)CC3)cc2N1 | 909 |
| Cc1c(S(=O)(=O)NC2CCCc3ccccc32)cc(C(=O)N2CCCCC2)n1C (stereo not given) | 907 |
| CCCCN1N=C(C(=O)N2CCC(C)CC2)S(=O)(=O)c2ccccc21 | 1030 |
| CCCc1ccc(C(=O)CC2(O)C(=O)Nc3ccccc32)cc1 (stereo not given) | 831 |
| O=C(Nc1cccc(F)c1)Nc1cccc(-c2ccc(N3CCOCC3)nn2)c1 | 697 |
| C[C@H]1CN(C(=O)Cc2c[nH]c3ccccc23)C[C@@H]1c1nc(-c2cccnc2)no1 | 755 |
| CN(C)C(=O)c1n[nH]c2c1CN(S(=O)(=O)c1ccccc1)CC2 | 660 |
| Cc1cc(-c2nnc(-c3ccco3)o2)c(C)n1CC(=O)Nc1cccc(F)c1 | 881 |
